Assay results from article PMC5343011, “Phenol-Soluble Modulin α Peptide Toxins from Aggressive Staphylococcus aureus Induce Rapid Formation of Neutrophil Extracellular Traps through a Reactive Oxygen Species-Independent Pathway” (Frontiers in Immunology, 2017).

Tests used:
[1] = test system: neutrophils; test: Plasma membrane disruption by lactate dehydrogenase (LDH) release; type: cell-based, human; settings: 10 min, 37°C, relative to Triton X-100-treated samples, two independent experiments in triplicates
Method: Neutrophils (2 × 10^6 cells/ml) were incubated with PSMα2 or hexadecyltrimethylammonium bromide (CTAB, Sigma) for 10 min at 37°C. LDH was measured in the supernatants with cytotoxicity detection kit (LDH, Roche) as described in Ref. ([25]).

[2] = test system: neutrophils; test: Sytox Green DNA release / NET formation; type: cell-based, human
Method: Peripheral blood neutrophils were isolated from 1-day-old buffy coats from healthy blood donors or from peripheral blood from patients and healthy controls. Neutrophil separation was performed as first described by Boyum ([23]). Briefly, after dextran, sedimentation at 1 × g the suspension was centrifuged on Ficoll-Paque, and the remaining erythrocytes were lysed by hypotonic treatment. The neutrophils were then washed in Krebs Ringer phosphate buffer (KRG) and finally resuspended in KRG supplemented with Ca^2+ (1 mM) and kept on melting ice until used. Buffy coats were obtained from the Sahlgrenska University Hospital blood bank after deidentification, and according to the Swedish legislation section code 4§ 3 p SFS2003:460, no informed consent is needed. Peripheral blood from one MPO-deficient individual, one patient with Papillon-Lefèvre syndrome, and healthy controls were obtained after written informed consent, and the study was approved by the Regional Ethical Review Board in Gothenburg, Sweden.
Cells (5 × 10^4 cells/well) in RPMI (without phenol red) and the Sytox Green DNA stain (1.25 μM; Molecular Probes) were added to black 96-well plates and incubated at 37°C and 5% CO2 ([5]). Inhibitors, PBP10 (CASLO Laboratory) or diphenyleneiodonium chloride (DPI; Sigma-Aldrich), were preincubated with cells for 10 min at 37°C and 5% CO2 prior to stimulation. Sytox Green fluorescence was measured at indicated time points at 485/535 nm in a Mithras LB940 (Berthold Technologies) or in a CLARIOstar plate reader (BMG Labtech).

[3] = test system: A375 melanoma cells; test: Microscopic visualization of melanoma cells (DAPI); type: cell-based, human; settings: PSMα2 or PSMα3 2.5 μM for 1 h, PMA 50 nM for 3 h, three independent experiments
Method: The human melanoma cell line A375 was a kind gift from Professor Jonas A. Nilsson (Sahlgrenska Cancer Center, University of Gothenburg, Sweden). The cells were cultured in DMEM with 10% FCS, 100 U/ml penicillin, and 100 μg/ml streptomycin at 37°C and 5% CO2. Before being used experimentally, the cells were detached from the flasks’ surface by incubation with 0.25% trypsin in 37°C for 10 min followed by washing and resuspension in RPMI culture media.
(§1) Neutrophils or human A375 melanoma cells (2.5 × 10^5 cells/well) were suspended in RPMI and added to poly-lysine-coated coverslips. After stimulation with PMA (50 nM; Sigma-Aldrich) or PSMα (indicated concentrations), the cells were incubated at 37°C in the presence of 5% CO2 or at 4°C for indicated time. To visualize NETs, samples were fixed in 4% paraformaldehyde for 30 min at room temperature and stained with antibodies against MPO (DAKO), NE (Calbiochem), or Histone-1 (Acris) followed by secondary antibody staining. Finally, the coverslips were incubated with DAPI (1 μg/ml) for 5 min and then mounted in ProLong Gold antifade (Molecular Probes). […]

[4] = test system: neutrophils; test: Nuclear membrane integrity (SUN2 staining, confocal microscopy); type: cell-based, human; settings: SUN2 and DNA staining, three independent experiments
Method: as §1, with “Probes). For nuclear morphology experiments, neutrophils were incubated with PSMα2 for 10 min or with PMA for 30 min or 2 h, the cells were fixed on ice with 4% paraformaldehyde, permeabilized with cold acetone and methanol (1:1) for 5 min, and stained with SUN2 antibody (Abcam) followed by secondary antibody staining. To visualize microbes in the NETs, we used green fluorescent protein (GFP)-expressing Candida albicans, strain CAI4 containing a C. albicans-specific pENO1-GFP-CyC1t plasmid ([26]), or S. aureus, strain RN4220 containing the pCN-GFP plasmid that was a kind gift from Dr. Maria Lerm (Linköping University, Sweden).” for “Probes).”

[5] = test system: neutrophils; settings: cited from earlier work
Description: Further, we have shown that enzymatic conversion of ROS by MPO inside granules is a prerequisite for PMA-induced NET formation ([10]). We thus investigated whether MPO was required for PSMα-induced NET formation by using neutrophils from a completely MPO-deficient donor [previously described in Ref. ([10])] that was sampled at two occasions (with nearly identical results). Neutrophils fro ...

[6] = test system: Formyl peptide receptor (FPR) 1 / FPR2; settings: receptor through which the peptide activates neutrophils; dash = inactive; cited from earlier work
Description: Table 1 Peptide sequences and receptor preferences of PSMα2. | column: Receptor preference^a

CCCCCCCCCCCCCCCC[N+](C)(C)C [CTAB, hexadecyltrimethylammonium bromide]
LDH release [1]: close to maximal
NET formation (Sytox Green fluorescence) after detergent treatment ([2]; 10 min, two independent experiments in triplicates): did not cause NET formation

c1ccc2c(c1)[I+]c1ccccc1-2 [DPI, diphenyleneiodonium chloride]
Effect of NADPH oxidase inhibitor on PMA-induced NET formation ([2]; PMA 50 nM, DPI 10 μM, three independent experiments): potently inhibited
Effect of NADPH oxidase inhibitor on PSMα-induced NETs ([2]; PSMα2 2.5 μM, DPI 10 μM, three independent experiments): without effect

CCCCCCCCCCCCCC(=O)O[C@@H]1[C@@H](C)[C@@]2(O)[C@@H](C=C(CO)C[C@]3(O)C(=O)C(C)=C[C@@H]23)[C@@H]2C(C)(C)[C@]12OC(C)=O [PMA, phorbol myristate acetate]
Extracellular DNA release from melanoma cells [3]: did not induce any DNA expulsion
Stimulation time at which disruption of nuclear membranes was first observed [4]: 2 h
Time to increase in Sytox green fluorescence ([2]; PMA 50 nM, 37°C, three independent experiments): 3 h
NET formation by neutrophils from a completely MPO-deficient donor in response to PMA [5]: unable to form NETs

f-MGIIA [1–5, shorter PSMα2 variant, amino acids 1–5]
Receptor preference [6]: Formyl peptide receptor (FPR) 1

f-MGIIAGIIKF [1–10, shorter PSMα2 variant, amino acids 1–10]
Receptor preference [6]: FPR1

f-MGIIAGIIKFIK [1–12, shorter PSMα2 variant, amino acids 1–12]
Receptor preference [6]: FPR1/FPR2

f-MGIIAGIIKFIKGLIE [1–16, shorter PSMα2 variant, amino acids 1–16]
Receptor preference [6]: FPR2
